Data from ChEMBL document CHEMBL3774317, “Design and synthesis of novel tamoxifen analogues that avoid CYP2D6 metabolism” (Eur J Med Chem, 2016).

What was measured:
Assay type in all cases: functional
[1] = test system: M14; assay: Cytotoxicity against human M14 cells assessed as growth inhibition after 48 hrs by SRB assay; details: M14, 48 h; for CC50: read-out: LC50 (the source's name)
[2] = test system: MDA-MB-231; assay: Cytotoxicity against human MDA-MB-231 cells assessed as growth inhibition after 48 hrs by SRB assay; details: MDA-MB-231, 48 h
[3] = Cytotoxicity against human IGROV1 cells assessed as growth inhibition after 48 hrs by SRB assay; details: IGROV-1, 48 h; for CC50: read-out: LC50 (the source's name)
[4] = test system: NCI-H522; assay: Cytotoxicity against human NCI-H522 cells assessed as growth inhibition after 48 hrs by SRB assay; details: NCI-H522, 48 h; for CC50: read-out: LC50 (the source's name)
[5] = Cytotoxicity against human OVCAR8 cells assessed as growth inhibition after 48 hrs by SRB assay; details: OVCAR-8, 48 h; for CC50: read-out: LC50 (the source's name)
[6] = Cytotoxicity against human NCI-ADR-RES cells assessed as growth inhibition after 48 hrs by SRB assay; details: for CC50: read-out: LC50 (the source's name)
[7] = Cytotoxicity against human UACC257 cells assessed as growth inhibition after 48 hrs by SRB assay; details: UACC-257, 48 h
[8] = Cytotoxicity against human HL-60(TB) cells assessed as growth inhibition after 48 hrs by SRB assay; details: HL-60, 48 h; for CC50: read-out: LC50 (the source's name)
[9] = Cytotoxicity against human OVCAR4 cells assessed as growth inhibition after 48 hrs by SRB assay; details: OVCAR-4, 48 h
[10] = Cytotoxicity against human Caki1 cells assessed as growth inhibition after 48 hrs by SRB assay; details: CAKI-1, 48 h
[11] = Cytotoxicity against human RPMI8226 cells assessed as growth inhibition after 48 hrs by SRB assay; details: RPMI-8226, 48 h
[12] = test system: 786-0; assay: Cytotoxicity against human 786-0 cells assessed as growth inhibition after 48 hrs by SRB assay; details: 786-0, 48 h; for CC50: read-out: LC50 (the source's name)
[13] = Cytotoxicity against human OVCAR3 cells assessed as growth inhibition after 48 hrs by SRB assay; details: OVCAR-3, 48 h
[14] = Cytotoxicity against human HOP92 cells assessed as growth inhibition after 48 hrs by SRB assay; details: HOP-92, 48 h; for CC50: read-out: LC50 (the source's name)
[15] = test system: ACHN; assay: Cytotoxicity against human ACHN cells assessed as growth inhibition after 48 hrs by SRB assay
[16] = test system: SN12C; assay: Cytotoxicity against human SN12C cells assessed as growth inhibition after 48 hrs by SRB assay
[17] = test system: MCF7; assay: Cytotoxicity against human MCF7 cells assessed as growth inhibition after 48 hrs by SRB assay; details: MCF7, 48 h; for CC50: read-out: LC50 (the source's name)
[18] = test system: HT-29; assay: Cytotoxicity against human HT-29 cells assessed as growth inhibition after 48 hrs by SRB assay; details: HT-29, 48 h; for CC50: read-out: LC50 (the source's name)
[19] = Cytotoxicity against human MOLT4 cells assessed as growth inhibition after 48 hrs by SRB assay; details: MOLT-4, 48 h
[20] = Cytotoxicity against human UO31 cells assessed as growth inhibition after 48 hrs by SRB assay; details: UO-31, 48 h; for CC50: read-out: LC50 (the source's name)
[21] = test system: MDA-MB-435; assay: Cytotoxicity against human MDA-MB-435 cells assessed as growth inhibition after 48 hrs by SRB assay; details: MDA-MB-435, 48 h; for CC50: read-out: LC50 (the source's name)
[22] = Cytotoxicity against human COLO205 cells assessed as growth inhibition after 48 hrs by SRB assay; details: COLO 205, 48 h; for CC50: read-out: LC50 (the source's name)
[23] = Cytotoxicity against human SF539 cells assessed as growth inhibition after 48 hrs by SRB assay; details: SF-539, 48 h
[24] = test system: MDA-MB-468; assay: Cytotoxicity against human MDA-MB-468 cells assessed as growth inhibition after 48 hrs by SRB assay; details: MDA-MB-468, 48 h; for CC50: read-out: LC50 (the source's name)
[25] = test system: SK-MEL-28; assay: Cytotoxicity against human SK-MEL-28 cells assessed as growth inhibition after 48 hrs by SRB assay; details: SK-MEL-28, 48 h
[26] = test system: NCI-H460; assay: Cytotoxicity against human NCI-H460 cells assessed as growth inhibition after 48 hrs by SRB assay; details: NCI-H460, 48 h; for CC50: read-out: LC50 (the source's name)
[27] = test system: K562; assay: Cytotoxicity against human K562 cells assessed as growth inhibition after 48 hrs by SRB assay; details: K562, 48 h
[28] = Cytotoxicity against human OVCAR5 cells assessed as growth inhibition after 48 hrs by SRB assay; details: OVCAR-5, 48 h
[29] = Cytotoxicity against human PC3 cells assessed as growth inhibition after 48 hrs by SRB assay; details: PC-3, 48 h
[30] = test system: A498; assay: Cytotoxicity against human A498 cells assessed as growth inhibition after 48 hrs by SRB assay; details: A498, 48 h
[31] = test system: T47D; assay: Cytotoxicity against human T47D cells assessed as growth inhibition after 48 hrs by SRB assay
[32] = Cytotoxicity against human LOXIMVI cells assessed as growth inhibition after 48 hrs by SRB assay; details: LOX IMVI

CCCCCCCCCC(=O)Oc1ccc(/C(=C(/C)c2ccccc2)c2ccc(OCCN3CCCC3)cc2)cc1
TGI [1]: 16.5 µM | CC50 [1]: 32.8 µM | GI50 [2]: 1.02 µM | LC50 [2]: 39.9 µM | TGI [2]: 20.2 µM | GI50 [3]: 8.87 µM | TGI [3]: 19.5 µM | CC50 [3]: 43.7 µM | GI50 [4]: 9.36 µM | TGI [4]: 18.4 µM | CC50 [4]: 36.3 µM | GI50 [5]: 9.78 µM | TGI [5]: 20.8 µM | CC50 [5]: 44.2 µM | GI50 [6]: 8.03 µM | TGI [6]: 16.8 µM | CC50 [6]: 35.4 µM | GI50 [7]: 9.23 µM | LC50 [7]: 30.6 µM | TGI [7]: 16.8 µM | GI50 [8]: 9.24 µM | TGI [8]: 18.7 µM | CC50 [8]: 37.8 µM | GI50 [9]: 7.39 µM | LC50 [9]: 29.9 µM | TGI [9]: 14.9 µM | GI50 [10]: 6.77 µM | LC50 [10]: 28.7 µM | TGI [10]: 13.9 µM | GI50 [11]: 9.13 µM | LC50 [11]: 48.5 µM | TGI [11]: 21 µM | GI50 [12]: 8.77 µM | TGI [12]: 16.8 µM | CC50 [12]: 32.2 µM | GI50 [13]: 8.18 µM | LC50 [13]: 31.6 µM | TGI [13]: 16.1 µM | GI50 [14]: 7.01 µM | TGI [14]: 15.4 µM | CC50 [14]: 33.8 µM | GI50 [15]: 8.16 µM | LC50 (concentration causing 50% net cell kill) [15]: 29.3 µM | TGI [15]: 15.5 µM | GI50 [16]: 9.15 µM | LC50 (concentration killing 50% of cells) [16]: 35.1 µM | TGI [16]: 17.9 µM | GI50 [17]: < 5 µM | TGI [17]: 10.3 µM | CC50 [17]: 28 µM | TGI [18]: 12.3 µM | CC50 [18]: 27 µM | GI50 [19]: 8.61 µM | LC50 [19]: 47.7 µM | TGI [19]: 20.3 µM | GI50 [20]: 6.72 µM | TGI [20]: 14.2 µM | CC50 [20]: 29.8 µM | GI50 [21]: 7.47 µM | TGI [21]: 14.1 µM | CC50 [21]: 26.5 µM | TGI [22]: 14.7 µM | CC50 [22]: 29.1 µM | GI50 [23]: 8.7 µM | LC50 [23]: 32.9 µM | TGI [23]: 16.9 µM | GI50 [24]: 7.26 µM | TGI [24]: 14.7 µM | CC50 [24]: 29.7 µM | LC50 (concentration killing 50% of starting cells) [25]: 28.6 µM | TGI [25]: 15.3 µM | GI50 [26]: 8.46 µM | TGI [26]: 15.9 µM | CC50 [26]: 29.9 µM | LC50 [27]: 36.2 µM | TGI [27]: 16.2 µM | GI50 [28]: 8.56 µM | LC50 (concentration killing 50% of cells) [28]: 31.8 µM | TGI [28]: 16.5 µM | GI50 [29]: 8.28 µM | LC50 [29]: 30 µM | TGI [29]: 15.7 µM | LC50 [30]: 29.4 µM | TGI [30]: 13.5 µM | LC50 [31]: 39.9 µM | TGI [31]: 14.4 µM | GI50 [32]: 8.02 µM | LC50 (concentration killing 50% of cells) [32]: 27.2 µM | TGI [32]: 14.8 µM

C/C(=C(/c1ccc(O)cc1)c1ccc(OCCN2CCCC2)cc1)c1ccccc1
GI50 [1]: 1.88 µM | TGI [1]: 4.08 µM | CC50 [1]: 8.86 µM | GI50 [2]: 3.51 µM | LC50 [2]: 45.7 µM | TGI [2]: 8.4 µM | GI50 [3]: 6.8 µM | TGI [3]: 27 µM | CC50 [3]: 90.7 µM | GI50 [4]: 2.1 µM | TGI [4]: 5.09 µM | CC50 [4]: 18.6 µM | GI50 [5]: 5.73 µM | TGI [5]: 23.1 µM | CC50 [5]: 77.2 µM | GI50 [6]: 4.17 µM | TGI [6]: 18.3 µM | CC50 [6]: 61.5 µM | GI50 [7]: 2.03 µM | LC50 [7]: 7.61 µM | TGI [7]: 3.93 µM | GI50 [8]: 2.04 µM | TGI [8]: 4.97 µM | CC50 [8]: 23.4 µM | GI50 [9]: 4.7 µM | LC50 [9]: 43.3 µM | TGI [9]: 17.5 µM | GI50 [10]: 3.02 µM | LC50 [10]: 37.3 µM | TGI [10]: 13.9 µM | GI50 [11]: 2.4 µM | LC50 [11]: 65 µM | TGI [11]: 6.72 µM | GI50 [12]: 1.86 µM | TGI [12]: 4.09 µM | CC50 [12]: 9 µM | GI50 [13]: 5.66 µM | LC50 [13]: 42.5 µM | TGI [13]: 18.1 µM | GI50 [14]: 2.24 µM | TGI [14]: 7.34 µM | CC50 [14]: 31.2 µM | GI50 [15]: 4.28 µM | LC50 (concentration causing 50% net cell kill) [15]: 44.1 µM | TGI [15]: 16.3 µM | GI50 [16]: 9.17 µM | LC50 (concentration killing 50% of cells) [16]: 68.7 µM | TGI [16]: 25.7 µM | GI50 [17]: < 0.01 µM | TGI [17]: 2.72 µM | CC50 [17]: 14 µM | GI50 [18]: 1.35 µM | TGI [18]: 3.2 µM | CC50 [18]: 7.58 µM | GI50 [19]: 2.94 µM | LC50 [19]: 67.2 µM | TGI [19]: 11 µM | GI50 [20]: 1.87 µM | TGI [20]: 5.72 µM | CC50 [20]: 23.7 µM | GI50 [21]: 1.88 µM | TGI [21]: 4.4 µM | CC50 [21]: 10.8 µM | GI50 [22]: 1.7 µM | TGI [22]: 3.38 µM | CC50 [22]: 6.73 µM | GI50 [23]: 1.81 µM | LC50 [23]: 7.79 µM | TGI [23]: 3.76 µM | GI50 [24]: 1.84 µM | TGI [24]: 4.47 µM | CC50 [24]: 13 µM | GI50 [25]: 1.65 µM | LC50 (concentration killing 50% of starting cells) [25]: 7.05 µM | TGI [25]: 3.41 µM | GI50 [26]: 2.36 µM | TGI [26]: 5.38 µM | CC50 [26]: 16.9 µM | GI50 [27]: 1.81 µM | LC50 [27]: 23.6 µM | TGI [27]: 4.77 µM | GI50 [28]: 7.99 µM | LC50 (concentration killing 50% of cells) [28]: 54.2 µM | TGI [28]: 22.5 µM | GI50 [29]: 4.28 µM | LC50 [29]: 40.1 µM | TGI [29]: 14.7 µM | GI50 [30]: 1.67 µM | LC50 [30]: 38.5 µM | TGI [30]: 8.49 µM | GI50 [31]: 0.716 µM | LC50 [31]: 53.7 µM | TGI [31]: 7.93 µM | GI50 [32]: 1.72 µM | LC50 (concentration killing 50% of cells) [32]: 6.29 µM | TGI [32]: 3.29 µM
